Results as given in PubChem BioAssay AID220 (DTP/NCI, 2004).
Several values for one entry are separate records, joined by “and”; a condition that tells them apart may be missing. Equal entries are not always repeated. Records with an inconclusive call do not appear.

System: CD8F1 mice, subcutaneous mammary adenocarcinoma, T/C%
Assay: NCI In Vivo Anticancer Drug Screen. Data for tumor model Mammary Adenocarcinoma CD8F1 (subcutaneous) in CD8F1
Conditions: higher = larger tumour
In short: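 Antitumor activity is assessed in transplantable-tumor mice by comparing the treated group with a vehicle-treated control group. Survival or tumor size serves as the measure, reported as T divided by C.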

[1] = endpoint: median tumor weight (est.), dose: 12.5 mg/kg/injection, schedule: Q07DX005 (ip), vehicle: saline with Tween-80
[2] = endpoint: median tumor weight (est.), dose: 25.0 mg/kg/injection, schedule: Q07DX005 (ip), vehicle: saline with Tween-80

## O=c1n(CC2CO2)c(=O)n(CC2CO2)c(=O)n1CC1CO1 (stereo not given)
endpoint: median tumor weight (est.), dose: 12.5 mg/kg/injection, schedule: Q07DX004 (ip), vehicle: saline with Tween-80
  T/C: 64 % of control
[1]
  T/C: 17 % of control
endpoint: median tumor weight (est.), dose: 12.5 mg/kg/injection, schedule: Q07DX005 (ip), vehicle: suspension in saline
  T/C: 69 % of control and 55 % of control
endpoint: median tumor weight (est.), dose: 25.0 mg/kg/injection, schedule: Q07DX004 (ip), vehicle: saline with Tween-80
  T/C: 79 % of control
[2]
  T/C: 4 % of control
endpoint: median tumor weight (est.), dose: 50.0 mg/kg/injection, schedule: Q07DX004 (ip), vehicle: saline with Tween-80
  T/C: 42 % of control
endpoint: median tumor weight (est.), dose: 50.0 mg/kg/injection, schedule: Q07DX005 (ip), vehicle: suspension in saline
  T/C: 12 % of control and 35 % of control

## NC(C/[N+]([O-])=N/O)C(=O)O (stereo not given)
endpoint: mean tumor weight, dose: 32.0 mg/kg/injection, schedule: Q07DX006 (ip), vehicle: saline
  T/C: 47 % of control
endpoint: mean tumor weight, dose: 64.0 mg/kg/injection, schedule: Q07DX006 (ip), vehicle: saline
  T/C: 4 % of control
endpoint: mean tumor weight, dose: 128.0 mg/kg/injection, schedule: Q07DX006 (ip), vehicle: saline
  T/C: 32 % of control
endpoint: mean tumor weight, dose: 256.0 mg/kg/injection, schedule: Q07DX006 (ip), vehicle: saline
  T/C: 117 % of control
endpoint: mean tumor weight, dose: 512.0 mg/kg/injection, schedule: Q07DX006 (ip), vehicle: saline
  T/C: 7 % of control
endpoint: mean tumor weight, dose: 1024.0 mg/kg/injection, schedule: Q07DX006 (ip), vehicle: saline
  T/C: 8 % of control
endpoint: median tumor weight (est.), dose: 25.0 mg/kg/injection, schedule: Q07DX005 (ip), vehicle: saline
  T/C: 63 % of control
endpoint: median tumor weight (est.), dose: 50.0 mg/kg/injection, schedule: Q07DX005 (ip), vehicle: saline
  T/C: 68 % of control
endpoint: median tumor weight (est.), dose: 64.0 mg/kg/injection, schedule: Q01DX005 (ip), vehicle: saline
  T/C: 85 % of control
endpoint: median tumor weight (est.), dose: 100.0 mg/kg/injection, schedule: Q07DX005 (ip), vehicle: saline
  T/C: 57 % of control
endpoint: median tumor weight (est.), dose: 128.0 mg/kg/injection, schedule: Q01DX005 (ip), vehicle: saline
  T/C: 92 % of control
endpoint: median tumor weight (est.), dose: 200.0 mg/kg/injection, schedule: Q07DX005 (ip), vehicle: saline
  T/C: 56 % of control
endpoint: median tumor weight (est.), dose: 256.0 mg/kg/injection, schedule: Q01DX005 (ip), vehicle: saline
  T/C: 51 % of control
endpoint: median tumor weight (est.), dose: 400.0 mg/kg/injection, schedule: Q07DX005 (ip), vehicle: saline
  T/C: 49 % of control
endpoint: median tumor weight (est.), dose: 512.0 mg/kg/injection, schedule: Q01DX005 (ip), vehicle: saline
  T/C: 31 % of control
endpoint: median tumor weight (est.), dose: 1024.0 mg/kg/injection, schedule: Q01DX005 (ip), vehicle: saline
  T/C: 63 % of control

## COc1cc2c(c(OC)c1OC)-c1ccc(OC)c(=O)cc1[C@@H](NC(=O)CCl)CC2
endpoint: median tumor weight change, dose: 5.0 mg/kg/injection, schedule: Q01DX001 (ip), vehicle: saline with Tween-80
  T/C: 76 % of control

## C[n+]1ccc(Nc2ccc(NC(=O)c3ccc(Nc4cc[n+](C)c5ccc(N)cc45)cc3)cc2)cc1
endpoint: median tumor weight (est.), dose: 16.0 mg/kg/injection, schedule: Q07DX005 (ip), vehicle: Klucel (hydroxypropylcellulose) (HPC)
  T/C: 51 % of control and 65 % of control
endpoint: median tumor weight (est.), dose: 32.0 mg/kg/injection, schedule: Q07DX005 (ip), vehicle: Klucel (hydroxypropylcellulose) (HPC)
  T/C: 24 % of control and 25 % of control

## O=C1NC(=O)/C(=C/C=C/c2ccccc2)S1
[1]
  T/C: 66 % of control
[2]
  T/C: 100 % of control
endpoint: median tumor weight (est.), dose: 100.0 mg/kg/injection, schedule: Q07DX005 (ip), vehicle: saline with Tween-80
  T/C: 81 % of control
endpoint: median tumor weight (est.), dose: 200.0 mg/kg/injection, schedule: Q07DX005 (ip), vehicle: saline with Tween-80
  T/C: 101 % of control

## O=CC(O)C(O)C(O)C(O)CO (stereo not given)
endpoint: median tumor weight change, dose: 75.0 mg/kg/injection, schedule: Q01DX001 (ip), vehicle: saline
  T/C: 66 % of control
endpoint: median tumor weight change, dose: 150.0 mg/kg/injection, schedule: Q01DX001 (ip), vehicle: saline
  T/C: 43 % of control
endpoint: median tumor weight change, dose: 300.0 mg/kg/injection, schedule: Q01DX001 (ip), vehicle: saline
  T/C: 61 % of control
endpoint: median tumor weight change, dose: 600.0 mg/kg/injection, schedule: Q01DX001 (ip), vehicle: saline
  T/C: 35 % of control
endpoint: median tumor weight change, dose: 1200.0 mg/kg/injection, schedule: Q01DX001 (ip), vehicle: saline
  T/C: 55 % of control
